Laboratory results reported in patent publication US9988407B2, “Prodrugs of prostate specific membrane antigen (PSMA) inhibitor” (THE JOHNS HOPKINS UNIVERSITY, priority 2014, dated 2018).
Entries after “also recorded” stand apart in the source; their conditions may differ.

What was measured:
[1] = PK of JAM0388 after oral gavage, 2-PMPA in brain and plasma; type: in vivo; conditions: 30 mg/kg equivalent of 2-PMPA by oral gavage
[2] = Metabolic stability in mouse plasma; type: in vitro ADME; conditions: 10 μM, 37° C.
Description: (§1) For metabolic stability, plasma (mouse, dog, monkey and human) and liver microsomes (mouse, dog, monkey and human) were used. For stability, prodrugs (10 μM) were spiked in each matrix and incubated in an orbital shaker at 37° C. At predetermined times (0, 30 and 60 min), 100 μL aliquots of the mixture in triplicate were removed and the reaction quenched by addition of three times the volume of ice cold acetonitrile spiked with the internal standard (losartan 5 μM). The samples were vortexed for 30 s and centrifuged 12000 g for 10 min. 50 μL supernatant diluted with 50 μL water was transferred to a 250 μL polypropylene vial sealed with a Teflon cap. Prodrug disappearance was monitored over time using a liquid chromatography and tandem mass spectrometry (LC/MS/MS) method as described below.
(§2) For LC/MS/MS, prodrugs were separated with Thermo Scientific Accela UPLC system coupled to Accela open autosampler on an Agilent C18 (100×2.1 mm id) UPLC column. The autosampler was temperature controlled and operating at 10° C. The mobile phase used for the chromatographic separation was composed of acetonitrile/water containing 0.1% formic acid and was run at a flow rate of 0.5 mL/minute for 4.5 minutes using gradient elution. The column effluent was monitored using TSQ Vantage triple-quadrupole mass spectrometric detector, equipped with an electrospray probe set in the positive ionization mode. Samples were introduced into the ionization source through a heated nebulized probe (350° C.).
(§3) For quantification of compound remaining, disappearance of prodrugs was measured from ratio of peak areas of analyte to IS. Percentage remaining was calculated in the following manner: […]

[3] = Metabolic stability in human plasma; type: in vitro ADME; conditions: 10 μM, 37° C.
Description: as §1, §2, §3

[4] = In vivo pharmacokinetics in mice, peroral, bioanalysis method 1 (total prodrug exposure); conditions: mice, oral dosing
Description: Blood was obtained via cardiac puncture and tissue dissected at 0 min, 15 min, 30 min, 1 h, 2 h, and 4 h post dose (n=3 per time point). Single time point studies were conducted at 30 min (N=3) following dosing. Plasma was harvested from blood by centrifugation. Mean concentration-time data was used for pharmacokinetic (PK) analysis. Non-compartmental-analysis module in WinNonlin® (version 5.3) was used to assess pharmacokinetic parameters. Peak plasma concentrations (Cmax) and time to Cmax (Tmax) were the observed values. Area under the curve (AUC) was calculated by log-linear (p.o.) trapezoidal rule to the end of sample collection (AUClast) and extrapolated to infinity (AUC0-∞) by dividing the last quantifiable concentration by the terminal disposition rate constant (ke). Terminal half-life (t1/2) was estimated from first order kinetics: t1/2=0.693/ke.
Briefly, prior to extraction, frozen samples were thawed on ice. For plasma extraction, 50 μL of the calibration standards or samples were transferred into silanized microcentrifuge tubes. Sample preparation involved a single liquid extraction by addition of 300 μL of methanol as extraction solution with internal standard (i.e., 5 μM of 2-PMSA in methanol), followed by vortexing for 30 s and then centrifugation at 12000 g for 10 min. Supernatant was transferred (˜250 μL) and evaporated to dryness at 40° C. under a gentle stream of nitrogen. The residue was reconstituted with 100 μL of derivatizing agent, n-butanol with 3N HCl, and samples were vortexed. The samples were heated at ˜60 OC in a shaking water bath for 30 min. At the end of 30 min, the derivatized samples were allowed to cool at room temperature and dried again for removal of derivatizing reagent, under a gentle stream of nitrogen. The residue was reconstituted in 100 μL of 30% acetonitrile in water v/v. The samples were vortexed and centrifuged again. ˜80 μL supernatant was transferred to a 250 μL polypropylene vial sealed with a Teflon cap and a volume of 10 μL was injected onto the ultra-performance liquid chromatography (UPLC) instrument for quantitative analysis. Chromatographic analysis was performed using an Accela™ ultra high-performance system consisting of an analytical pump, and an autosampler coupled with TSQ Vantage mass spectrometer (Thermo Fisher Scientific Inc., Waltham Mass.). […] The mobile phase used was composed of 0.1% formic acid in acetonitrile and 0.1% formic acid in H2O with gradient elution, starting with 20% (organic) linearly increasing to 65% up to 2.5 min, maintaining at 65% (2.5-3.5 min) and reequilibrating to 30% by 5 min. The total run time for each analyte was 5.0 min.

[5] = Metabolic stability in mouse liver S9; type: in vitro ADME; conditions: Mouse S9, 10 μM, 37° C.
[6] = In vivo pharmacokinetics in mice, peroral, bioanalysis method 2 (2-PMPA release); conditions: mouse, in vivo
Description: Blood was obtained via cardiac puncture and tissue dissected at 0 min, 15 min, 30 min, 1 h, 2 h, and 4 h post dose (n=3 per time point). Single time point studies were conducted at 30 min (N=3) following dosing. Plasma was harvested from blood by centrifugation. Mean concentration-time data was used for pharmacokinetic (PK) analysis. Non-compartmental-analysis module in WinNonlin® (version 5.3) was used to assess pharmacokinetic parameters. Peak plasma concentrations (Cmax) and time to Cmax (Tmax) were the observed values. Area under the curve (AUC) was calculated by log-linear (p.o.) trapezoidal rule to the end of sample collection (AUClast) and extrapolated to infinity (AUC0-∞) by dividing the last quantifiable concentration by the terminal disposition rate constant (ke). […] The tissues were stored in −20° C. for 1 h and then homogenized. The calibration curve for the tissues was developed using naïve mouse brains from untreated animals as a matrix. For sciatic nerve, the nerves were weighed and homogenized in 50 μL methanol and the calibration curve was developed using naïve sciatic nerves from untreated animals as a matrix. The samples were vortexed and centrifuged. […] Supernatant was dried under a gentle stream of nitrogen at 45° C. and the residue reconstituted with 75 μL of acetonitrile and vortexed. 25 μL of derivatizing agent N-tert-Butyldimethysilyl-N-methyltrifluoro-acetamide (MTBSTFA) was added to microcentrifuge tubes, vortexed, and heated at ˜60 OC for 40 min. At the end of 40 min, the derivatized samples ˜75 μL were transferred to a 250 μL polypropylene vials and were analyzed via LC/MS/MS. Chromatographic analysis was performed using an Accela™ ultra high-performance system consisting of an analytical pump, and an autosampler coupled with TSQ Vantage mass spectrometer (Thermo Fisher Scientific Inc., Waltham Mass.). […] The total run time for each analyte was 5.0 min. Chromatographic analysis will be performed on Accela UPLC.

[7] = Metabolic stability in human liver microsomes; type: in vitro ADME; conditions: 10 μM, 37° C.
Description: as §1, §2, §3

[8] = Metabolic stability in mouse liver microsomes; type: in vitro ADME; conditions: 10 μM, 37° C.
Description: as §1, §2, §3

[9] = In vitro metabolic stability screen in plasma and liver subcellular fractions (results in words); type: in vitro ADME; conditions: 60 min incubation
Description: as §1, §2
For quantification of compound remaining, disappearance of prodrugs was measured from ratio of peak areas of analyte to IS. Percentage remaining was calculated in the following manner:
In general, the prodrugs were screened by an in vitro metabolic stability screen, and if positive, followed by an in vivo single time point pharmacokinetic study, and in select cases, an in vivo full time course pharmacokinetic study (FIG. 3). In this Example, the four acidic functional groups in 2-PMPA were systematically capped. The carboxylic acids were first masked with simple alkyl esters (Compounds 1, 2, and 3). In vitro chemical and metabolic stability of the prodrugs then were conducted, following 60 min incubation in plasma stability screens for prodrugs.

[10] = cited from earlier work
DSS-induced colitis = assay: DSS-induced murine model of colitis; type: in vivo, C57/B6 mice
Description: Disease activity index (DAI), which positively correlated with the disease severity, was used as a measure for clinical activity. * P<0.05;
(§4) To investigate whether PSMA can be a suitable novel therapeutic target for clinical intervention against IBD, the effect of PSMA prototype inhibitors on three most widely used murine models of IBD was tested, including DNBS-induced colitis, DSS-induced colitis, and IL-10 knockout (IL-10 KO) mice (a genetic model that develops spontaneous colitis). In all three models, PSMA inhibitor treatment dramatically ameliorated symptoms. […] The improvement of these prolapse-retracting mice was unequivocally obvious in that their body weight increased dramatically when compared to that of untreated control IL-10 KO mice (FIG. 21C).

PSMA = target: T1, PSMA (Mus musculus, UniProt O35409); assay: PSMA activity in colonic or cecal mucosa of DSS-treated mice; type: in vivo; conditions: DSS-induced colitis, mucosa extract
T1 construct: from tissue; host or cells: colonic or cecal mucosa of C57/B6 mice with DSS-induced colitis
T1 sequence (O35409 whole entry): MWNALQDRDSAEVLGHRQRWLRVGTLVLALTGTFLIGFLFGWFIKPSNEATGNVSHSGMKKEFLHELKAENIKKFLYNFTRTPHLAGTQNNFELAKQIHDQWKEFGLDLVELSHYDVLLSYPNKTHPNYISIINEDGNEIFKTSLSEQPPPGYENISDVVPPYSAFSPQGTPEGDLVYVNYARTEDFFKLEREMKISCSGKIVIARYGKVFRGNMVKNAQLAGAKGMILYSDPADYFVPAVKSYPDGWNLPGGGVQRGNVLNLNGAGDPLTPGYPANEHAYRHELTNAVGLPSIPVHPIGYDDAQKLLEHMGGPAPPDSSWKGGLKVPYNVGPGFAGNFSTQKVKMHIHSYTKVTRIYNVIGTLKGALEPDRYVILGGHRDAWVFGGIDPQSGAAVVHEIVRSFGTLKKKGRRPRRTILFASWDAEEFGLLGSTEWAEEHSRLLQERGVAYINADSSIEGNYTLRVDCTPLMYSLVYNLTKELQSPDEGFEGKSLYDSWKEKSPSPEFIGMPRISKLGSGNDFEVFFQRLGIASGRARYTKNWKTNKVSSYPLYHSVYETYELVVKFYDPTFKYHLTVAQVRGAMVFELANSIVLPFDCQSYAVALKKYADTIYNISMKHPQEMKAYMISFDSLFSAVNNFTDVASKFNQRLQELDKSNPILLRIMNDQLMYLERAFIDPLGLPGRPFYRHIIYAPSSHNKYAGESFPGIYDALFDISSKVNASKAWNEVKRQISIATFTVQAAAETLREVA
Description: PSMA activity was measured using extract from mucosa;
as §4

[11] = tested on: spontaneous colitis in IL-10 KO mice; assay: Spontaneous colitis in IL-10 knockout mice; type: in vivo, IL-10 KO mice (C57/B6)
Description: as §4

EAE = conditions: cited from earlier work

With “4-((diphenoxyphosphoryl)methyl)-5-(((isopropoxycarbonyl)oxy)methoxy)-5-oxopentanoic acid [Compound 30]” the “brain levels of 2-PMPA” value ([1]; brain at 30 min and 5 h) was “low at both time points” and the “release of 2-PMPA in plasma” value ([1]; plasma at 30 min and 5 h) was “excellent release of 2-PMPA in plasma”.
CCOC(=O)CCC(CP(=O)(O)O)C(=O)OCC (centres unmarked) [Compound 2, [5-Ethoxy-2-(ethoxycarbonyl)-5-oxopentyl]phosphonic acid] gave a Percentage remaining ([2]; 0 min) of 100%, a Percentage remaining ([2]; 30 min) of 99% and a Percentage remaining ([2]; 60 min) of 83%. The Percentage remaining ([3]; 0 min) was 100%, the Percentage remaining ([3]; 30 min) was 81% and the Percentage remaining ([3]; 60 min) was 59%. For the same compound, the “permeability in vivo” value [4] was “showed the most permeability”, the Percentage remaining ([5]; 0 min) was 100% and the Percentage remaining ([5]; 30 min) was 103%. For the same compound, the Percentage remaining ([5]; 60 min) was 103%, the “stability of carboxylic esters in vivo” value [6] was “too stable in vivo” and the Percentage remaining ([7]; 0 min) was 100%. For the same compound, the Percentage remaining ([7]; 30 min) was 88%, the Percentage remaining ([7]; 60 min) was 73% and the Percentage remaining ([8]; 0 min) was 100%. The Percentage remaining ([8]; 30 min) was 99%, the Percentage remaining ([8]; 60 min) was 88% and the “in vitro metabolic stability” value [9] was “too stable”.
For O=C(O)CCC(CP(=O)(O)O)C(=O)O (centres unmarked) [Compound 2-PMPA, 2-phosponomethyl pentanedioic acid], the “oral availability F” value ([10]; 2-PMPA itself) is listed as < 1%, the “concentrations in the brain” value ([10]; after 50-100 mg/kg intraperitoneal injection (i.p.) doses) is listed as 30 to 50 µM and the “dose response” value (DSS-induced colitis; 1, 10, and 100 mg/kg i.p., murine IBD models) is listed as “dose dependent effect with 100 mg/kg provided the most benefit”. For the same compound, the “efficacy” value (DSS-induced colitis; i.p. administration at 100 mg/kg, DSS model) was “excellent efficacy”, the “PSMA activity in colonic or cecal mucosa” value (PSMA) was “effectively suppresses PSMA activity” and the “disease severity (macroscopic disease, prolapse), words” value ([11]; 100 mg/kg for 2 weeks) was “not only improvement of disease but even retraction of prolapse; also recorded: significantly reduced the disease severity”. The “complete retraction of prolapse, share of treated mice” value ([11]; 2 of the 20 mice) was 10%, the “efficacy” value ([11]; i.p. administration at 100 mg/kg, IL 10 knock out model) was “excellent efficacy” and the “cognitive function” value (EAE; EAE mice, Barnes maze) was “improves cognitive function; also recorded: cognition was significantly improved”. For the same compound, the “brain NAAG” value (EAE; EAE mice, post mortem analysis) was “elevates NAAG; also recorded: significant increase in brain NAAG”, the “physical severity of EAE” value (EAE; EAE mice) was “no difference in physical severity was observed” and the “fear conditioning, fear memory” value (EAE; EAE+2-PMPA vs EAE+Vehicle) was “significant difference between fear memory”.
